Measurements reported in patent publication US20260103465A1, “GLYCOGEN SYNTHASE KINASE 3 INHIBITORS AND USES THEREOF” (The Broad Institute, Inc., priority 2023, published 2026).
Read-outs that look alike come from different tables or passages of the source.

How the values were obtained:
[1] = biological target: T1, GSK3a (GST-full length GSK3a) (Homo sapiens, UniProt P49840); assay: GSK3a TR-FRET kinase inhibition assay; type: biochemical
T1 construct: GST-full length GSK3a [SignalChem G08-10G]; purchased SignalChem G08-10G
T1 sequence (P49840 whole entry): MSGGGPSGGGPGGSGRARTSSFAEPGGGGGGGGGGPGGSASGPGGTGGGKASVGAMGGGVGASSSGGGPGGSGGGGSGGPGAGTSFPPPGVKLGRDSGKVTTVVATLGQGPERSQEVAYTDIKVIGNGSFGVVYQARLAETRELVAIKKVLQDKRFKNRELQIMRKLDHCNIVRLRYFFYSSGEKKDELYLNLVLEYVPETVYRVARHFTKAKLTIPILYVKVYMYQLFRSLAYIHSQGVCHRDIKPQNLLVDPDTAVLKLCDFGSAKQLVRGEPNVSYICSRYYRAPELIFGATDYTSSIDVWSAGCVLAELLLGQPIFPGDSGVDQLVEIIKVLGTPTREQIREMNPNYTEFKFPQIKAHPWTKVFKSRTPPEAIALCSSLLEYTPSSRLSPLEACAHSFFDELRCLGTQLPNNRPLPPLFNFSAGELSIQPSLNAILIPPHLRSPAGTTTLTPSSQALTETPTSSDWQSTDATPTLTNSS
In short: (§1)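 IC50 derived from normalized 665/615 TR-FRET signal (Tb anti-pSer641 antibody, streptavidin-d2), read after EDTA stop. Reaction: 1 nM GST-full-length enzyme, 30 min compound pre-incubation, 100 min at ambient temperature in Tris pH 7.5 with 1% DMSO, 200 nM biotinylated primed glycogen synthase peptide, ATP 2 μM to 1 mM.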

[2] = biological target: T2, GSK3b (GST-full length GSK3b) (Homo sapiens, UniProt P49841); assay: GSK3b TR-FRET kinase inhibition assay; type: biochemical
T2 construct: GST-full length GSK3b: [SignalChem G08-9G]; purchased SignalChem G08-9G
T2 sequence (P49841 whole entry): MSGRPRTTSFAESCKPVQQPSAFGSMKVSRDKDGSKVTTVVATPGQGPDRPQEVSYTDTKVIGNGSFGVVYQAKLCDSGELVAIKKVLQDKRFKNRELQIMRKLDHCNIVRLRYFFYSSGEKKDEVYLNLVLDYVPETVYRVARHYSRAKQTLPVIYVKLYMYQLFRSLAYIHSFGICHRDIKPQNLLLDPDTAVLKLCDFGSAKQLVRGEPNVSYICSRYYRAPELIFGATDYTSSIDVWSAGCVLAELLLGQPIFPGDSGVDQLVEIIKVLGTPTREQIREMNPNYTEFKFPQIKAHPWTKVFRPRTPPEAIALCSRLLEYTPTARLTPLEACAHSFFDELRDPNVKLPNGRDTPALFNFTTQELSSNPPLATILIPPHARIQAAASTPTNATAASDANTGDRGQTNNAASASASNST
In short: as §1

[3] = 1 mM ATP, Table 3, read-out: GSK3a TR-FRET 1 mM ATP Average IC50
[4] = 1 mM ATP, Table 3, read-out: GSK3b TR-FRET 1 mM ATP Average IC50
[5] = 1 mM ATP, Table 5, read-out: GSK3α TR-FRET 1 mM ATP Average IC50
[6] = 1 mM ATP, Table 5, read-out: GSK3β TR-FRET 1 mM ATP Average IC50
[7] = 4 μM ATP, read-out: GSK3α TR-FRET 4 μM ATP GMean IC50
[8] = 2 μM ATP, read-out: GSK3β TR-FRET 2 μM ATP GMean IC50

SMILES	IC50 [1, 7] [µM]	IC50 [2, 8] [µM]	also measured
Cc1nn(C)c(C)c1-c1cccc(C2(C)C3=C(CC(C)(C)CC3=O)Nc3ncc(C(F)(F)F)cc32)c1 (single isomer, unassigned) [Compound 170A]	–	–	IC50 [1, 3]: 1 to 5 µM; IC50 [2, 4]: 1 to 5 µM
Cc1nn(C)c(C)c1-c1cccc(C2(C)C3=C(CC(C)(C)CC3=O)Nc3ncc(C(F)(F)F)cc32)c1 (single isomer, unassigned) [Compound 170B]	–	–	IC50 [1, 3]: 5 to 20 µM; IC50 [2, 4]: 1 to 5 µM
CC(C)n1cncc1-c1cccc(C2(C)C3=C(CC(C)(C)CC3=O)Nc3ncc(C(F)(F)F)cc32)c1 (single isomer, unassigned) [Compound 171A]	–	–	IC50 [1, 3]: 1 to 5 µM; IC50 [2, 4]: 1 to 5 µM
CC(C)n1cncc1-c1cccc(C2(C)C3=C(CC(C)(C)CC3=O)Nc3ncc(C(F)(F)F)cc32)c1 (single isomer, unassigned) [Compound 171B]	–	–	IC50 [1, 3]: 1 to 5 µM; IC50 [2, 4]: 0.1 to 1 µM
COc1cncc(CC(C)(C)C)c1-c1cccc(C2(C)C3=C(CC(C)(C)CC3=O)Nc3ncccc32)c1 (single isomer, unassigned) [Compound 172A]	–	–	IC50 [1, 3]: 0.1 to 1 µM; IC50 [2, 4]: 0.1 to 1 µM
CC(C)(C)Cc1cncc(F)c1-c1cccc(C2(C)C3=C(CC(C)(C)CC3=O)Nc3ncc(F)cc32)c1 (single isomer, unassigned) [Compound 173A]	–	–	IC50 [1, 3]: 1 to 5 µM; IC50 [2, 4]: 1 to 5 µM
COc1cncc(F)c1-c1cccc(C2(C)C3=C(CC(C)(C)CC3=O)Nc3ncc(C(F)(F)F)cc32)c1 (single isomer, unassigned) [Compound 174A]	–	–	IC50 [1, 3]: 1 to 5 µM; IC50 [2, 4]: 1 to 5 µM
COc1cncc(F)c1-c1cccc(C2(C)C3=C(CC(C)(C)CC3=O)Nc3ncc(C(F)(F)F)cc32)c1 (single isomer, unassigned) [Compound 174B]	–	–	IC50 [1, 3]: 1 to 5 µM; IC50 [2, 4]: 0.1 to 1 µM
CC1(C)CC2=C(C(=O)[C@@H]1F)[C@@](C)(c1ccccc1)c1c(ncc(F)c1C#N)N2 (single isomer, unassigned) [Compound 616A]	–	–	IC50 [1, 5]: 0.1 to 1 µM; IC50 [2, 6]: 0.1 to 1 µM
CC1(C)CC2=C(C(=O)[C@@H]1F)[C@](C)(c1ccccc1)c1c(ncc(F)c1C#N)N2 (single isomer, unassigned) [Compound 616B]	–	–	IC50 [1, 5]: 0.1 to 1 µM; IC50 [2, 6]: 0.1 to 1 µM
CC1(C)CC2=C(C(=O)[C@H]1F)[C@@](C)(c1ccccc1)c1c(ncc(F)c1C#N)N2 (single isomer, unassigned) [Compound 616C]	–	–	IC50 [1, 5]: 5 to 20 µM; IC50 [2, 6]: 5 to 20 µM
CC1(C)CC2=C(C(=O)[C@H]1F)[C@](C)(c1ccccc1)c1c(ncc(F)c1C#N)N2 (single isomer, unassigned) [Compound 616D]	–	–	IC50 [1, 5]: 5 to 20 µM; IC50 [2, 6]: 5 to 20 µM
CC1(C)CC(=O)C2=C(Nc3ncc(F)c(C#N)c3[C@]2(C)c2ccccc2)[C@H]1F (single isomer, unassigned) [Compound 617A]	–	–	IC50 [1, 5]: 5 to 20 µM; IC50 [2, 6]: 5 to 20 µM
CC1(C)CC(=O)C2=C(Nc3ncc(F)c(C#N)c3[C@@]2(C)c2ccccc2)[C@@H]1F (single isomer, unassigned) [Compound 617B]	–	–	IC50 [1, 5]: 0.1 to 1 µM; IC50 [2, 6]: 0.1 to 1 µM
CC1(C)CC(=O)C2=C(Nc3ncc(F)c(C#N)c3[C@]2(C)c2ccccc2)[C@@H]1F (single isomer, unassigned) [Compound 617C]	–	–	IC50 [1, 5]: 5 to 20 µM; IC50 [2, 6]: 5 to 20 µM
CC1(C)CC(=O)C2=C(Nc3ncc(F)c(C#N)c3[C@@]2(C)c2ccccc2)[C@H]1F (single isomer, unassigned) [Compound 617D]	–	–	IC50 [1, 5]: 0.1 to 1 µM; IC50 [2, 6]: 0.1 to 1 µM
CC1(C)CC(=O)C2=C(Nc3ncc(C(F)F)c(C#N)c3[C@]2(C)c2ccccc2)[C@H]1F (single isomer, unassigned) [Compound 633A]	–	–	IC50 [1, 5]: 5 to 20 µM; IC50 [2, 6]: 1 to 5 µM
CC1(C)CC(=O)C2=C(Nc3ncc(C(F)F)c(C#N)c3[C@@]2(C)c2ccccc2)[C@@H]1F (single isomer, unassigned) [Compound 633B]	–	–	IC50 [1, 5]: 1 to 5 µM; IC50 [2, 6]: 0.1 to 1 µM
CC1(C)CC(=O)C2=C(Nc3ncc(C(F)F)c(C#N)c3[C@]2(C)c2ccccc2)[C@@H]1F (single isomer, unassigned) [Compound 633C]	–	–	IC50 [1, 5]: 5 to 20 µM; IC50 [2, 6]: 5 to 20 µM
CC1(C)CC(=O)C2=C(Nc3ncc(C(F)F)c(C#N)c3[C@@]2(C)c2ccccc2)[C@H]1F (single isomer, unassigned) [Compound 633D]	–	–	IC50 [1, 5]: 1 to 5 µM; IC50 [2, 6]: 0.1 to 1 µM
CCC1(c2ccccc2)C2=C(CC(C)(C)NC2=O)Nc2ncccc21 (single isomer, unassigned) [Compound 1002A]	> 5	> 5	–
CCC1(c2ccccc2)C2=C(CC(C)(C)NC2=O)Nc2ncccc21 (single isomer, unassigned) [Compound 1002B]	1 to 5	1 to 5	–
CCC1(c2ccccc2)C2=C(Nc3ncccc31)C(F)C(C)(C)CC2=O (single isomer, unassigned) [Compound 1006A]	> 5	> 5	–

SMILES	IC50 [1, 7] [µM]	IC50 [2, 8] [µM]	also measured
CCC1(c2ccccc2)C2=C(Nc3ncccc31)C(F)C(C)(C)CC2=O (single isomer, unassigned) [Compound 1006B]	> 5	> 5	–
CCC1(c2ccccc2)C2=C(CC(C)(C)NC2=O)Nc2ncc(F)cc21 (single isomer, unassigned) [Compound 1007A]	> 5	> 5	–
CCC1(c2cccc(C(C)C)c2)C2=C(CC(C)(C)CC2=O)Nc2ncccc21 (single isomer, unassigned) [Compound 1011A]	> 5	> 5	–
CCC1(c2cccc(C(F)(F)F)c2)C2=C(CC(C)(C)CC2=O)Nc2ncccc21 (single isomer, unassigned) [Compound 1014A]	1 to 5	> 5	–
CCC1(c2cccc(C(F)(F)F)c2)C2=C(CC(C)(C)CC2=O)Nc2ncccc21 (single isomer, unassigned) [Compound 1014B]	≤ 0.1	0.1 to 1	–
CCC1(c2cccc(-c3cccnc3)c2)C2=C(CC(C)(C)CC2=O)Nc2ncccc21 (single isomer, unassigned) [Compound 1015B]	1 to 5	> 5	–
CCC1(c2cccc(-c3ccccn3)c2)C2=C(CC(C)(C)CC2=O)Nc2ncccc21 (single isomer, unassigned) [Compound 1016B]	1 to 5	> 5	–
CCC1(c2cccc(-c3ccncc3)c2)C2=C(CC(C)(C)CC2=O)Nc2ncccc21 (single isomer, unassigned) [Compound 1017B]	> 5	> 5	–
CCC1(c2cccc(-c3cnn(C)c3)c2)C2=C(CC(C)(C)CC2=O)Nc2ncccc21 (single isomer, unassigned) [Compound 1018A]	> 5	> 5	–
CCC1(c2cccc(-c3cnn(C)c3)c2)C2=C(CC(C)(C)CC2=O)Nc2ncccc21 (single isomer, unassigned) [Compound 1018B]	≤ 0.1	≤ 0.1	–
CCC1(c2cccc(-c3ccnn3C)c2)C2=C(CC(C)(C)CC2=O)Nc2ncccc21 (single isomer, unassigned) [Compound 1019B]	> 5	> 5	–
CCC1(c2cccc(-c3ccncc3C)c2)C2=C(CC(C)(C)CC2=O)Nc2ncccc21 (single isomer, unassigned) [Compound 1020A]	1 to 5	> 5	–
CCC1(c2cccc(-c3ccnc(C)c3)c2)C2=C(CC(C)(C)CC2=O)Nc2ncccc21 (single isomer, unassigned) [Compound 1021A]	> 5	> 5	–
CCC1(c2cccc(-c3ccnc(C)c3)c2)C2=C(CC(C)(C)CC2=O)Nc2ncccc21 (single isomer, unassigned) [Compound 1021B]	0.1 to 1	0.1 to 1	–
CCC1(c2cccc(-c3cnnc(C)c3)c2)C2=C(CC(C)(C)CC2=O)Nc2ncccc21 (single isomer, unassigned) [Compound 1022A]	0.1 to 1	0.1 to 1	–
CCC1(c2cccc(-c3cnnc(C)c3)c2)C2=C(CC(C)(C)CC2=O)Nc2ncccc21 (single isomer, unassigned) [Compound 1022B]	> 5	> 5	–
CCC1(c2cccc(-c3cn(C)nc3C)c2)C2=C(CC(C)(C)CC2=O)Nc2ncccc21 (single isomer, unassigned) [Compound 1023B]	0.1 to 1	1 to 5	–
CCC1(c2cccc(-c3cc(C)nn3C)c2)C2=C(CC(C)(C)CC2=O)Nc2ncccc21 (single isomer, unassigned) [Compound 1024A]	1 to 5	> 5	–
CCC1(c2cccc(-c3ccnn3C)c2)C2=C(CC(C)(C)CC2=O)Nc2ncc(F)cc21 (single isomer, unassigned) [Compound 1025B]	0.1 to 1	> 5	–
CCC1(c2cccc(-c3cc(C)ncc3C)c2)C2=C(CC(C)(C)CC2=O)Nc2ncccc21 (single isomer, unassigned) [Compound 1027A]	> 5	> 5	–
CCC1(c2cccc(-c3ccncc3OC)c2)C2=C(CC(C)(C)CC2=O)Nc2ncccc21 (single isomer, unassigned) [Compound 1028A]	1 to 5	> 5	–
CCC1(c2cccc(-c3ccncc3OC)c2)C2=C(CC(C)(C)CC2=O)Nc2ncccc21 (single isomer, unassigned) [Compound 1028B]	≤ 0.1	≤ 0.1	–
CCC1(c2cccc(-c3ccncc3C)c2)C2=C(CC(C)(C)CC2=O)Nc2ncc(F)cc21 (single isomer, unassigned) [Compound 1031A]	0.1 to 1	0.1 to 1	–
